Experimental data: patent US5789434A, “Derivatives of substituted 4-biarylbutyric acid as matrix metalloprotease inhibitors” (priority 1995, dated 1998)
Where a name gives a salt, the structure may show the parent alone.

Target: T1, MMP-3 (Homo sapiens, UniProt P08254)
T1 construct: Truncated Prostromelysin-257 was expressed in a soluble form in E.coli; made in house; host or cells: E. coli
Assay: Primary Thiopeptilide MMP-3 Inhibition Assay
Assay type: biochemical
Details: at 5 μM; read-out: MMP-3 Thiopep. % inhibition

T1 sequence (P08254 100-274 limits assumed): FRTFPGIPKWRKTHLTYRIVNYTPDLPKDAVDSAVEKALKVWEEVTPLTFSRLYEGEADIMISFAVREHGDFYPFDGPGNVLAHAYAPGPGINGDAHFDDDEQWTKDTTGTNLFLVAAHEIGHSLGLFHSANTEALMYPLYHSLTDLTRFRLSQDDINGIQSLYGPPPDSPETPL

Row | inhibition at 5 µM | SMILES
1 | 0% | CC(C)CC1CC(c2ccc(-c3ccc(Cl)cc3)cc2)OC1=O (stereo not drawn) [Example 35, 2(3H)-Furanone, 5-(4'-chloro[1,1'-biphenyl]-4-yl)dihydro-3-(2-methylpropyl)-, reference compound]
2 | 55% | CC(CC(=O)c1ccc(-c2ccc(Cl)cc2)cc1)(Sc1ccccc1)C(=O)O (stereo not drawn) [Example 245, [1,1'-Biphenyl]-4-butanoic acid, 4'-chloro-α-methyl-γ-oxo-α-(phenylthio)-]
3 | 14% | O=C(C[C@@H](C[S+]([O-])c1ccccc1)C(=O)O)c1ccc(-c2ccc(Cl)cc2)cc1 (stereo partly drawn) [Example 246, [1,1'-Biphenyl]-4-butanoic acid, 4'-chloro-γ-oxo-α-[(phenylsulfinyl)methyl]-, stereoisomer]
4 | 48% | CCN(CC)CCC(CC(=O)c1ccc(-c2ccc(Cl)cc2)cc1)C(=O)O (stereo not drawn) [Example 264, [1,1'-Biphenyl]-4-butanoic acid, 4'-chloro-α-[2-(diethylamino)ethyl]-γ-oxo-, hydrochloride]
5 | 43% | CCCCCCCCCCC(CC(=O)c1ccc(-c2ccc(Cl)cc2)cc1)C(=O)O (stereo not drawn) [Example 123, [1,1'-Biphenyl]-4-butanoic acid, 4'-chloro-α-decyl-γ-oxo-]

Same assay, conditions: pH 6.5; 13 nM stromelysin; x (n) = average of n determinations; read-out: MMP-3 Thiopep. IC50

Row | IC50 | SMILES
6 | 220 nM | O=C(CC(CSc1cccc2ccccc12)C(=O)O)c1ccc(-c2ccc(Cl)cc2)cc1 (stereo not drawn) [Example 227, [1,1'-Biphenyl]-4-butanoic acid, 4'-chloro-α-[(1-naphthalenylthio)methyl]-γ-oxo-]
7 | 950 nM | O=C(O)CC(CSc1cccs1)C(=O)c1ccc(-c2ccc(Cl)cc2)cc1 (stereo not drawn) [Example 255, [1,1'-Biphenyl]-4-butanoic acid, 4'-chloro-γ-oxo-β-[(2-thienylthio)methyl]-]
8 | 403 nM | CCCCCCCC(CC(=O)c1ccc(-c2ccc(Cl)cc2)cc1)C(=O)O (stereo not drawn) [Example 122, [1,1'-Biphenyl]-4-butanoic acid, 4'-chloro-α-hepty-γ-oxo-]
9 | 920 nM | O=C(O)Cc1ccc(SCC(CC(=O)c2ccc(-c3ccc(Cl)cc3)cc2)C(=O)O)cc1 (stereo not drawn) [Example 238, [1,1'-Biphenyl]-4-butanoic acid, α-[[[4-(carboxymethyl)phenyl]thio]methyl]-4'-chloro-γ-oxo-]
10 | 2000 nM | COC(=O)c1ccc(SCC(CC(=O)c2ccc(-c3ccc(Cl)cc3)cc2)C(=O)O)cc1 (stereo not drawn) [Example 237, [1,1'-Biphenyl]-4-butanoic acid, 4'-chloro-α-[[[4-(methoxycabonyl)phenyl]thio]methyl]-γ-oxo-]
11 | 1600 nM | O=C(C[C@H](C[S+]([O-])c1ccccc1)C(=O)O)c1ccc(-c2ccc(Cl)cc2)cc1 (stereo partly drawn) [Example 249, [1,1'-Biphenyl]-4-butanoic acid, 4'-chloro-γ-oxo-α-[(phenylsulfinyl)methyl]-, stereoisomer]
12 | 830 nM | O=C(C[C@H](C[S+]([O-])c1ccccc1)C(=O)O)c1ccc(-c2ccc(Cl)cc2)cc1 (stereo partly drawn) [Example 248, [1,1'-Biphenyl]-4-butanoic acid, 4'-chloro-γ-oxo-α-[(phenylsulfinyl)methyl]-, stereoisomer]
13 | 2000 nM | O=C(CC(CSc1cccc(C(F)(F)F)c1)C(=O)O)c1ccc(-c2ccc(Cl)cc2)cc1 (stereo not drawn) [Example 236, [1,1'-Biphenyl]-4-butanoic acid, 4'-chloro-γ-oxo-α-[[[3-(trifluoromethyl)phenyl]thio]methyl]-]
14 | 310 nM | COC(=O)c1ccccc1CCC(CC(=O)c1ccc(-c2ccc(Cl)cc2)cc1)C(=O)O (stereo not drawn) [Example 142, [1,1'-Biphenyl]-4-butanoic acid, 4'-chloro-α-[2-[2-(methoxycarbonyl)phenyl]ethyl]-γ-oxo-]
15 | 600 nM | O=C(CC(CCc1ccccc1I)C(=O)O)c1ccc(-c2ccc(Cl)cc2)cc1 (stereo not drawn) [Example 126, [1,1'-Biphenyl]-4-butanoic acid, 4'-chloro-α-[2-(2-iodophenyl)ethyl]-γ-oxo-]

Target: T2, MMP-9 (Homo sapiens, UniProt P14780)
T2 construct: from tissue; host or cells: human polymorphonuclear leukocytes (PMN) from whole blood (New York Blood Center), PMA-stimulated supernatant
T2 sequence (P14780 107-707 limits assumed): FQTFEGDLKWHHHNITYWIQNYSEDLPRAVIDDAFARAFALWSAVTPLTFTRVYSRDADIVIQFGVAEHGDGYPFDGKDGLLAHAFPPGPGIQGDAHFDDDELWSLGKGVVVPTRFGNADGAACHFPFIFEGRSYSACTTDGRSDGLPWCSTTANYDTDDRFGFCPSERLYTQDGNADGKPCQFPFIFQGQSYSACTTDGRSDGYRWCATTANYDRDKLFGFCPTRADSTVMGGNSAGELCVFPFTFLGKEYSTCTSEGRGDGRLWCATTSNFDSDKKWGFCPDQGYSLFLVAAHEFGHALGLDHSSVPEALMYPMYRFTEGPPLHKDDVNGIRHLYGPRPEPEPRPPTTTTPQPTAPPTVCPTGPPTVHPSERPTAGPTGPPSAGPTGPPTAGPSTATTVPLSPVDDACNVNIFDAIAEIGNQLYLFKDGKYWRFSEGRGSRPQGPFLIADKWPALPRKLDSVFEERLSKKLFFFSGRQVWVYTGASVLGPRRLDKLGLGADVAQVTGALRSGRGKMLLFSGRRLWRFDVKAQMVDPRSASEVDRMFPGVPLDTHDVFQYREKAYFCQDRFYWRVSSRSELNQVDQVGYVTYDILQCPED
Assay: Thiopeptilide MMP-9 Inhibition Assay
Assay type: biochemical
Details: at 5 μM; read-out: MMP-9: Thiopep. % inhibition

Row | inhibition at 5 µM | SMILES
16 | 21% | O=C(C[C@@H](CSc1ccccc1)C(=O)O)c1ccc(-c2ccc(Cl)cc2)cc1 [Example 198, 4-[4-(4-chlorophenyl)phenyl]-4-oxo-2R-(phenylthiomethyl)butanoic acid]

Same assay, conditions: pH 6.5; x (n) = average of n determinations; read-out: MMP-9: Thiopep. IC50

Row | IC50 | SMILES
17 | 360 nM | O=C(CC(CSc1cccc2ccccc12)C(=O)O)c1ccc(-c2ccc(Cl)cc2)cc1 (stereo not drawn) [Example 227, [1,1'-Biphenyl]-4-butanoic acid, 4'-chloro-α-[(1-naphthalenylthio)methyl]-γ-oxo-]
18 | 2000 nM | O=C(O)CC(CSc1cccs1)C(=O)c1ccc(-c2ccc(Cl)cc2)cc1 (stereo not drawn) [Example 255, [1,1'-Biphenyl]-4-butanoic acid, 4'-chloro-γ-oxo-β-[(2-thienylthio)methyl]-]
